Results published in patent US20260176260A1, “DUAL RAF AND TUBULIN INHIBITORS AND METHODS OF USE THEREOF” (Deciphera Pharmaceuticals, LLC, priority 2023, published 2026).
Where two headings read alike, the source gives them in different places.

How the values were obtained:
[1] = biological target: T1, C-Raf kinase (Homo sapiens, UniProt P04049, Y340D/Y341D); assay: Biochemical assay for C-Raf (coupled pyruvate kinase/lactate dehydrogenase); conditions: read-out: CRAF
T1 construct: C-Raf residues 306-end; Y340D, Y341D with N-; purchased Sigma
T1 sequence (P04049 307-648 Y340D/Y341D): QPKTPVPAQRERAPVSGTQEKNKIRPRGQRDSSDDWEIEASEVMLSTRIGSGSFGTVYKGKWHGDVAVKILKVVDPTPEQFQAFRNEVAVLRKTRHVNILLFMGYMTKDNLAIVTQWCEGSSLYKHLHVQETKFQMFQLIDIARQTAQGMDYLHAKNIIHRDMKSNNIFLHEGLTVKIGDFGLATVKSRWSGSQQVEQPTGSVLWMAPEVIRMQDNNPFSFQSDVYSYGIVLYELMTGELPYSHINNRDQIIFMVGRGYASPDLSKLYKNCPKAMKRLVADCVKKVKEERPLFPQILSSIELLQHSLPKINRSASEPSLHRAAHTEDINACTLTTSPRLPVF

[2] = biological target: T2, B-Raf kinase (Homo sapiens, UniProt P15056); assay: Biochemical assay for B-Raf (coupled pyruvate kinase/lactate dehydrogenase); conditions: read-out: BRAF
T2 construct: purchased Sigma
T2 sequence (P15056 416-766): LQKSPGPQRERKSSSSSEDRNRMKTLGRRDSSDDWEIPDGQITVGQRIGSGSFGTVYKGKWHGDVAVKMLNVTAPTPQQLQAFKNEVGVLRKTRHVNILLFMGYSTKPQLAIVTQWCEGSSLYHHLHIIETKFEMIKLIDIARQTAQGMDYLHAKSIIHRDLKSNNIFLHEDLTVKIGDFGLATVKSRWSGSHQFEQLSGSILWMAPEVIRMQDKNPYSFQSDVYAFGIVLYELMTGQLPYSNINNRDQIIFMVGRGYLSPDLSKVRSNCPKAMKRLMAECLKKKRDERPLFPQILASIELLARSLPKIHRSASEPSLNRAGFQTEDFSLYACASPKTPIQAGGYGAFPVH

[3] = system: HPAF-II cells; assay: HPAF-II cell proliferation assay (resazurin); format: cell-based; conditions: read-out: HPAF-II
Method in brief: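 Serial compound dilutions in triplicate with 750 cells/well in complete MEM with 10% FBS, 115 to 120 h at 37° C, 5% CO2. Resazurin then added for 18 to 24 h; fluorescence at ex 540/em 600 nm used to derive IC50.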

[4] = system: Pa16c cells; assay: Pa16c cell proliferation assay (resazurin); format: cell-based; conditions: Table 2, inhibition of cell proliferation
Method in brief: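 Pa16c cells, 750 per well in DMEM with 10% FBS, exposed to serially diluted compound in triplicate for 67-72 h at 37 °C. Resazurin then added for a further 18-24 h, fluorescence read at Ex 540/Em 600 nm, and IC50 calculated.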

[5] = system: HCT-116 cells; assay: HCT-116 cell proliferation assay (resazurin); format: cell-based; conditions: read-out: HCT-116
Method in brief: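 HCT-116 cells, 375 per well in McCoy's 5A with 10% FBS, exposed to serially diluted compound in triplicate for 67-72 h at 37 °C. Resazurin added for 4-5 h more; fluorescence (ex 540/em 600 nm) fitted to IC50.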

[6] = system: MiaPaca-2 cells; assay: MiaPaca-2 cell proliferation assay (resazurin); format: cell-based; conditions: read-out: MiaPaca-2
[7] = Table 1, inhibition of biochemical activity
[8] = Homo sapiens, Table 2, inhibition of cell proliferation
[9] = Homo sapiens, MIA PaCa-2, Table 2, inhibition of cell proliferation

IC50 [1, 7] [nM]	IC50 ([1]; Table 3) [nM]	IC50 [2, 7] [nM]	IC50 ([2]; Table 3) [nM]	IC50 [5, 8] [nM]	IC50 ([5]; Table 3) [nM]	IC50 [6, 9] [nM]	IC50 ([6]; Table 3) [nM]	Structure (SMILES)	IC50 [3, 8] [nM]	IC50 ([3]; Table 3) [nM]	IC50 [4] [nM]
< 100	< 100	< 100	< 100	< 100	< 100	< 100	< 100	CNC(=O)c1cc(-c2cc(-c3cc(NC(=O)c4cc(C(F)(F)F)cnn4)ccc3C)cc(NCCO)n2)ccn1 [Example 18]	100 to 500	100 to 500	< 100
< 100	< 100	< 100	< 100	100 to 500	100 to 500	100 to 500	100 to 500	CNC(=O)c1cc(-c2cc(-c3cc(NC(=O)c4cc(C5CC5)cnn4)ccc3C)ccn2)ccn1 [Example 26]	100 to 500	100 to 500	100 to 500
< 100	< 100	< 100	< 100	100 to 500	100 to 500	100 to 500	100 to 500	CNC(=O)c1cc(-c2cc(-c3cc(NC(=O)c4cc(C(F)(F)F)cnn4)ccc3C)ccn2)ccn1 [Example 9]	100 to 500	100 to 500	100 to 500
< 100	< 100	100 to 500	100 to 500	500 to 1000	500 to 1000	100 to 500	100 to 500	CNC(=O)c1cc(-c2cc(-c3cc(NC(=O)c4cc(C(F)(F)F)cnn4)ccc3C)cc(C)n2)ccn1 [Example 2, N,6-dimethyl-4-(2-methyl-5-(5-(trifluoromethyl)pyridazine-3-carboxamido)phenyl)-[2,4′-bipyridine]-2′-carboxamide]	500 to 1000	500 to 1000	500 to 1000
< 100	< 100	< 100	< 100	< 100	< 100	100 to 500	100 to 500	CNC(=O)c1cc(-c2cc(-c3cc(NC(=O)c4cc(C5CC5)cnn4)ccc3C)cc(NCCO)n2)ccn1 [Example 27]	100 to 500	100 to 500	< 100
